Assay type in all cases: in vivo
Series [1] has as its system Digitaria sanguinalis. The experiment in a line: Control experiment, test in post-emergence stage. The settings on record: 5-6 leaf stage, 15 g/ha, observe time 25 day. Details: key: Level 10: completely dead; Level 9: above 90% growth inhibition rate; Level 8: above 80% growth inhibition rate; Level 7: above 70% growth inhibition rate; Level 6: above 60% growth inhibition rate; Level 5: above 50% growth inhibition rate; Level 4: above 30% growth inhibition rate; Level 3: above 20% growth inhibition rate; Level 2: above 10% growth inhibition rate; Level 1: above 1-10% growth inhibition rate; Level 0: no effect. The procedure: (§1) Test in post-emergence stage: seeds of monocotyledonous weeds and corn were put into a plastic pot loaded with soil, covered with 0.5-2 cm soil, and allowed to grow in good greenhouse environment. The test plants were treated at 5-6 leaf stage 4 weeks after sowing. The test compounds of the present invention were dissolved with acetone respectively, then added with tween 80, diluted by a certain amount of water to reach a certain concentration. The solution was sprayed to the plants by a spray tower. The test application rate was 15 g/ha and the observe time was 25 day.

Series [2] deals with Echinochloa crus-galli. Kind of series: Control experiment, test in post-emergence stage. Details: key: Level 10: completely dead; Level 9: above 90% growth inhibition rate; Level 8: above 80% growth inhibition rate; Level 7: above 70% growth inhibition rate; Level 6: above 60% growth inhibition rate; Level 5: above 50% growth inhibition rate; Level 4: above 30% growth inhibition rate; Level 3: above 20% growth inhibition rate; Level 2: above 10% growth inhibition rate; Level 1: above 1-10% growth inhibition rate; Level 0: no effect. The settings on record: 5-6 leaf stage, 15 g/ha, observe time 25 day. Here is the method: as §1

In series [3] the test system is Setaria viridis. The experiment in a line: Control experiment, test in post-emergence stage. As to conditions: 5-6 leaf stage, 15 g/ha, observe time 25 day. More on the design: key: Level 10: completely dead; Level 9: above 90% growth inhibition rate; Level 8: above 80% growth inhibition rate; Level 7: above 70% growth inhibition rate; Level 6: above 60% growth inhibition rate; Level 5: above 50% growth inhibition rate; Level 4: above 30% growth inhibition rate; Level 3: above 20% growth inhibition rate; Level 2: above 10% growth inhibition rate; Level 1: above 1-10% growth inhibition rate; Level 0: no effect. The procedure:
as §1

The subject of series [4] is Corn. Kind of series: Control experiment, test in post-emergence stage, crop safety. More on the design: key: Level 10: completely dead; Level 9: above 90% growth inhibition rate; Level 8: above 80% growth inhibition rate; Level 7: above 70% growth inhibition rate; Level 6: above 60% growth inhibition rate; Level 5: above 50% growth inhibition rate; Level 4: above 30% growth inhibition rate; Level 3: above 20% growth inhibition rate; Level 2: above 10% growth inhibition rate; Level 1: above 1-10% growth inhibition rate; Level 0: no effect. As to conditions: 5-6 leaf stage, 15 g/ha, observe time 25 day. The procedure: as §1

Series [5] relates to Monocotyledonous and dicotyledonous weed. Kind of series: Post-emergence test experiment, weed control effect (Table 2). Details: key to weed control effect, Setaria viridis (level) / weed control effect, Rorippa indica (level) / weed control effect, Abutilon theophrasti (level) / weed control effect, Echinochloa crus-galli (level) / weed control effect, Digitaria sanguinalis (level): Level 10: completely dead; Level 9: above 90% growth inhibition rate; Level 8: above 80% growth inhibition rate; Level 7: above 70% growth inhibition rate; Level 6: above 60% growth inhibition rate; Level 5: above 50% growth inhibition rate; Level 4: above 30% growth inhibition rate; Level 3: above 20% growth inhibition rate; Level 2: above 10% growth inhibition rate; Level 1: above 1-10% growth inhibition rate; Level 0: no effect. The settings on record: 3 weeks after spraying, greenhouse. Summed up:
(§2)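 Weed and crop seeds (wheat, corn, rice, soybean, cotton, oilseed, millet, sorghum) grown in soil in greenhouse; sprayed at 2-3 leaf stage, 2-3 weeks after sowing, with compound in acetone/Tween 80/water. Effects assessed after 3 weeks further greenhouse culture.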

Series [6] has as its system main crop (wheat, corn, rice, soybean, cotton, oilseed, millet and sorghum). The experiment in a line: Post-emergence test experiment, main crops (Table 2). More on the design: key: Level 10: completely dead; Level 9: above 90% growth inhibition rate; Level 8: above 80% growth inhibition rate; Level 7: above 70% growth inhibition rate; Level 6: above 60% growth inhibition rate; Level 5: above 50% growth inhibition rate; Level 4: above 30% growth inhibition rate; Level 3: above 20% growth inhibition rate; Level 2: above 10% growth inhibition rate; Level 1: above 1-10% growth inhibition rate; Level 0: no effect. As to conditions: 3 weeks after spraying, greenhouse. Summed up: as §2

The test system of series [7] is Echinochloa crus-galli, Scirpus juncoides and Monochoria vaginalis. Kind of series: Resistance tests on the collected weed seeds. As to conditions: common rate; seeds collected from Heilongjing and Jiangsu Province of China. An excerpt:
The seeds of Echinochloa crus-galli, Scirpus juncoides and Monochoria vaginalis were collected from Heilongjing and Jiangsu Province of China.

In the case of `COCc1c(S(C)(=O)=O)ccc(C(=O)c2c(C)nn(C)c2O)c1Cl` [A, reference compound], the “Digitaria sanguinalis (activity level)” value in series [1] is 6 (Level 6: above 60% growth inhibition rate). In series [2], the “Echinochloa crus-galli (activity level)” value is 7 (Level 7: above 70% growth inhibition rate). In series [3], the “Setaria viridis (activity level)” value was 7 (Level 7: above 70% growth inhibition rate). The “Corn (safety, activity level)” value in series [4] is 1 (Level 1: above 1-10% growth inhibition rate).
For `Cc1nn(C)c(O)c1C(=O)c1ccc(S(C)(=O)=O)c(COCC(F)(F)F)c1Cl` [B, reference compound], in series [1], the “Digitaria sanguinalis (activity level)” value is 5 (Level 5: above 50% growth inhibition rate). Further, the “Echinochloa crus-galli (activity level)” value in series [2] is 6 (Level 6: above 60% growth inhibition rate). For the same molecule, the “Setaria viridis (activity level)” value in series [3] is reported as 7 (Level 7: above 70% growth inhibition rate). Besides, in series [4], the “Corn (safety, activity level)” value turned out to be 0.
For the molecule `COCc1c(S(C)(=O)=O)ccc(C(=O)c2c(C)nn(C)c2OC(=O)c2cn(C)nc2C)c1Cl` [Compound 26], in series [5] (30 g/ha), the “weed control effect, Abutilon theophrasti (level)” value is listed as 7 (Level 7: above 70% growth inhibition rate); the “weed control effect, Bidens pilosa (level)” value is reported as 8 (Level 8: above 80% growth inhibition rate); the “weed control effect, Digitaria sanguinalis (level)” value worked out at 10; the “weed control effect, Echinochloa crus-galli (level)” value was found to be 10. Further, in series [5] (30 g/ha), the “weed control effect, Rorippa indica (level)” value was 8 (Level 8: above 80% growth inhibition rate) and the “weed control effect, Setaria viridis (level)” value was found to be 10. In series [6] (30 g/ha), the “effect on crop, corn (level)” value is 1 (Level 1: above 1-10% growth inhibition rate); the “effect on crop, rice (level)” value was 5 (Level 5: above 50% growth inhibition rate); the “effect on crop, wheat (level)” value came out at 0. Further, the “Digitaria sanguinalis (activity level)” value in series [1] was 10. For the same molecule, the “Echinochloa crus-galli (activity level)” value in series [2] turned out to be 10. Further, the “Setaria viridis (activity level)” value in series [3] is on record as 10. Moreover, the “Corn (safety, activity level)” value in series [4] stood at 0.
On to `Cc1nn(C)cc1C(=O)Oc1c(C(=O)c2ccc(S(C)(=O)=O)c(COCC(F)(F)F)c2Cl)c(C)nn1C` [Compound 29], for which, in series [5] (15 g/ha), the “weed control effect, Abutilon theophrasti (level)” value is given as 8 (Level 8: above 80% growth inhibition rate); the “weed control effect, Bidens pilosa (level)” value was 5 (Level 5: above 50% growth inhibition rate); the “weed control effect, Digitaria sanguinalis (level)” value is on record as 9 (Level 9: above 90% growth inhibition rate); the “weed control effect, Echinochloa crus-galli (level)” value is 8 (Level 8: above 80% growth inhibition rate). In addition, in series [5] (15 g/ha), the “weed control effect, Rorippa indica (level)” value is reported as 4 (Level 4: above 30% growth inhibition rate) and the “weed control effect, Setaria viridis (level)” value came to 10. In series [6] (15 g/ha), the “effect on crop, corn (level)” value is 0; the “effect on crop, rice (level)” value is given as 3 (Level 3: above 20% growth inhibition rate); the “effect on crop, wheat (level)” value worked out at 0. The “Digitaria sanguinalis (activity level)” value in series [1] is recorded as 10. Besides, the “Echinochloa crus-galli (activity level)” value in series [2] was 8 (Level 8: above 80% growth inhibition rate). Besides, in series [3], the “Setaria viridis (activity level)” value is listed as 9 (Level 9: above 90% growth inhibition rate). Also, the “Corn (safety, activity level)” value in series [4] is reported as 0.
For `CCOC(=O)c1cnn(C)c1S(=O)(=O)NC(=O)Nc1nc(OC)cc(OC)n1` [pyrazosulfuron-ethyl], the “Resistance of the weeds to the herbicide” value in series [7] is “resistant”.

The values are drawn from patent US10556888B2, “Pyrazole compounds or salts thereof, preparation methods therefor, herbicidal compositions and use thereof” (QINGDAO KINGAGROOT CHEMICAL COMPOUNDS CO., LTD, priority 2015, dated 2020).
